From ChEMBL document CHEMBL1201862, “PubChem BioAssay data set” (2004)
Calls of active or inactive are those of the source.

Tests used:
ELAV-like protein 1 = ELAV-like protein 1 (Homo sapiens, UniProt Q15717); assay: Identify HuR specific inhibitors.; assay type: functional
[1] = target: Heat shock protein HSP 90-alpha (Homo sapiens, UniProt P07900); assay: Luminescence-based dose response biochemical high throughput screening assay for inhibitors of the Heat Shock Protein 90 (HSP90). [Related pubchem assays: 1831 (Summary AID.), 1846 (Confirmation screen.), 1789 (Primary screen.)]
[2] = Luminescence Cell-Based Dose Response HTS to Identify Activators of Luciferase Translation or Activity in H4 […] Cells. [Related pubchem assays: 1829 (Project Summary), 1814 (Primary HTS)]; assay type: functional
H4 = assay: Luminescence Cell-Based Dose Response HTS to Identify Activators of 5'UTR Stem-Loop Driven Prion Protein mRNA Translation in H4 Neuroglioblastoma Cells. [Related pubchem assays: 1829 (Project Summary), 1814 (Primary HTS)]; assay type: functional; details: Homo sapiens
Caspase-6 = target: T1, Caspase-6 (Homo sapiens, UniProt P55212); assay: human caspase-6 inhibitors, dose response, biochemical, VEID-R110 fluorescence, cherry-pick (AID 720632)
T1 sequence (P55212 whole entry): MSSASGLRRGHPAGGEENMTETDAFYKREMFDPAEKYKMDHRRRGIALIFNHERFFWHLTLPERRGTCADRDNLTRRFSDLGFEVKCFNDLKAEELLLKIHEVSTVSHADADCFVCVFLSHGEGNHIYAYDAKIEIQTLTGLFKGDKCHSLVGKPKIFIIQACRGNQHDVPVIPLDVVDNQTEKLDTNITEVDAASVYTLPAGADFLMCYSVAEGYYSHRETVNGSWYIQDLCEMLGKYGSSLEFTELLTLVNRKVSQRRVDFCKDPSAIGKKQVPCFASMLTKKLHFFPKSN

[3] = target: T2, Polyadenylate-binding protein 1 (Homo sapiens, UniProt P11940); assay: PABP1 MLLE–PAM2 binding inhibitor potency, dose response, biochemical, fluorescence polarization, FITC-PAM2 peptide (AID 602259); assay type: functional; details: read-out: IC50_Mean
[4] = target: T2, Polyadenylate-binding protein 1; assay: PABP1 MLLE–PAM2 interaction inhibitors, dose response, miRNA deadenylation inhibitor project, biochemical, fluorescence polarization, Cy5-PAM2 peptide, secondary (AID 602260); assay type: functional; details: read-out: IC50_Mean
Caspase-9 = Caspase-9 (Homo sapiens, UniProt P55211); assay: caspase-9 enzyme inhibition, dose response, selectivity assay for caspase-6 inhibitor project, biochemical, fluorescence, plate reader, cherry-picked samples (AID 743293)
Caspase-7 = Caspase-7 (Homo sapiens, UniProt P55210); assay: human caspase-7 inhibitors, dose response, selectivity assay for caspase-6 inhibitor project, biochemical, DEVD-R110 fluorescence, cherry-pick (AID 743295)
[5] = target: T3, Rac GTPase-activating protein 1 (Homo sapiens, UniProt Q9H0H5); assay: MgcRacGAP GTPase-activating activity inhibitors, confirmation, biochemical, ADP Hunter fluorescence, primary and confirmatory (AID 624330); assay type: functional
T3 sequence (Q9H0H5 whole entry): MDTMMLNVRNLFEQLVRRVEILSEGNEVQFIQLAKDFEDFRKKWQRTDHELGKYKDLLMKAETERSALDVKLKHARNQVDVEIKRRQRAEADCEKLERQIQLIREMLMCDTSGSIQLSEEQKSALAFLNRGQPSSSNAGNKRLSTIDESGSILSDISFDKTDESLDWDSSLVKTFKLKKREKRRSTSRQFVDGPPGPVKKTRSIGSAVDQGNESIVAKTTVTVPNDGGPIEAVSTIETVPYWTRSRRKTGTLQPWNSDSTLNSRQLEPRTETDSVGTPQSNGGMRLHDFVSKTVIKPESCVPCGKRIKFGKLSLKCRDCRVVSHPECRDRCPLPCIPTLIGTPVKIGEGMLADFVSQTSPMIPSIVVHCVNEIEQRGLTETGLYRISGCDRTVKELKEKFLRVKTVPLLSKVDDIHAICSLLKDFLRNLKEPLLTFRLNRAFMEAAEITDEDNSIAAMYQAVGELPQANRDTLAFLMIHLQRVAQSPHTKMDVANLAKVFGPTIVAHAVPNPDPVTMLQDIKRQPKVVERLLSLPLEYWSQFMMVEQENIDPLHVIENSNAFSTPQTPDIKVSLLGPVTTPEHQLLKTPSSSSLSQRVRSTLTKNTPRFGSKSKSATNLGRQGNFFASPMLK

[6] = Luminescence Cell-Based Dose Response HTS to Identify Inhibitors of 5'UTR Stem-Loop Driven Prion Protein mRNA Translation in H4 Neuroglioblastoma Cells. [Related pubchem assays: 1827 (Project Summary), 1813 (Primary HTS)]; assay type: functional
[7] = inhibitors of SNCA 5'UTR-driven reporter translation, confirmation, H4 neuroglioma cells, luminescence (AID 1988); assay type: functional, cell-based
[8] = inhibitors of firefly luciferase expression or activity, dose response, H4 neuroglioma cells, luminescence (AID 1990); assay type: functional, cell-based
[9] = inhibitors of Vif binding to APOBEC3G peptide, primary screen, biochemical, TR-FRET, GST-Vif 1-94, biotin-A3G peptide, dose response retest (AID 1117319); assay type: functional;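 also: TR-FRET signal of purified GST-Vif binding a biotinylated A3G peptide; inhibitors lower the FRET signal by blocking Vif and A3G binding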
[10] = off-target signal loss in HeLa-CEM21 co-culture – HeLa F-luc CTL cells, cherry-picked, counter-screen for HIV-1 Env fusion inhibitor project, dose response (AID 652040); assay type: functional, cell-based;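 also: potency for signal decrease marking cytotoxic or nonspecific inhibition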
[11] = inhibitors of HIV Env-driven cell fusion, dose response, cherry-pick (AID 652057); assay type: functional, cell-based
[12] = inhibitors of clade B AD8 Env fusion, dose response, cell-based, cherry-pick (AID 652062); assay type: functional;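 also: luciferase signal from cell-cell fusion driven by HIV-1 clade B AD8 Env; potency is for inhibitors of fusion seen as a drop in luminescence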
Transthyretin = Transthyretin (Homo sapiens, UniProt P02766); assay: Luminescence-based cell-based high throughput dose response assay to identify activators of Transthyretin (TTR) transcription.; assay type: functional
[13] = P. falciparum Dd2 growth inhibitors, dose response, SYBR Green, dry powder samples (AID 1159566); assay type: functional, cell-based;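 also: potency for growth inhibition with lower SYBR green DNA signal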
[14] = P. falciparum 3D7-ScDHODH growth inhibitors, dose response, SYBR Green, dry powder samples (AID 1159570); assay type: functional, cell-based;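 also: parasite growth measured after 72 hours of compound exposure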
[15] = HepG2 cell cytotoxicity, dose response, cytotoxicity control, plate reader, dry powder samples (AID 1159569); assay type: functional, cell-based;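 also: inhibitor potency with signal falling toward the positive control level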
[16] = P. falciparum Dd2 growth inhibitors, dose response, SYBR Green, cherry-picked samples (AID 1159567); assay type: functional, cell-based
[17] = Plasmodium falciparum Dd2 Sybr green parasite growth Measured in Cell-Based and Microorganism Combination System Using Plate Reader - 2153-01_Inhibitor_Dose_DryPowder_Activity_Set10.; assay type: functional
[18] = P. falciparum ATP4 D1247Y mutant growth inhibitors, dose response, NITD609-resistant line, SYBR Green, dry powder (AID 1159571); assay type: functional, cell-based;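 also: parasites synchronized at ring stage by sorbitol before testing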
[19] = cytotoxicity in COV362 ovarian cancer cells, dose response, cytotoxicity control for PAX8 inhibitor project, cell-based, plate reader, dry powder, SA12 (AID 743144); assay type: functional
[20] = cytotoxicity in COV434 cells, dose response, cytotoxicity control for PAX8 inhibitor project, cell-based, plate reader, dry powder, SA7 (AID 743145); assay type: functional
Paired box protein Pax-8 = Paired box protein Pax-8 (Homo sapiens, UniProt Q06710); assay: inhibitors of PAX8-driven TPO luciferase reporter, dose response, RMG-I cells, cherry-pick (AID 687027); assay type: functional, cell-based;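 also: luciferase reporter driven by Pax8 target thyroperoxidase promoter measured by SteadyGlo luminescence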
[21] = IOSE-T80 ovarian epithelial cell cytotoxicity, dose response, cytotoxicity control for PAX8 inhibitor project, plate reader, dry powder samples (AID 743045); assay type: functional, cell-based
[22] = IGROV1 ovarian cancer cell cytotoxicity, dose response, PAX8 inhibitor project, plate reader, dry powder samples (AID 743043); assay type: functional, cell-based; details: IGROV-1
[23] = PAX5 activity inhibitors, dose response, selectivity assay for PAX8 inhibitor project, cell-based, plate reader, dry powder samples (AID 743047); assay type: functional;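 also: HEK293 cells carrying a Pax5 driven CD19 promoter luciferase reporter; potency of inhibitors that lower reporter luminescence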
[24] = PAX2 cell-based inhibition, dose response, selectivity assay for PAX8 inhibitor project, plate reader, dry powder samples (AID 743048); assay type: functional;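 also: HEK293 cells carrying a WT1 promoter luciferase reporter driven by expressed Pax2; potency is for inhibition of Pax2 driven reporter signal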
[25] = cytotoxicity in OV-90 ovarian cancer cells, dose response, PAX8 inhibitor project, cell-based, plate reader, dry powder, SA8 (AID 743149); assay type: functional
[26] = non-specific cell cytotoxicity, dose response, cytotoxicity control for PAX8 inhibitor project, plate reader, dry powder samples (AID 743021); assay type: functional, cell-based
[27] = cytotoxicity dependent on PAX8, dose response, cell-based, plate reader, dry powder (AID 743049); assay type: functional
[28] = cytotoxicity in OVCAR4 cells, dose response, cytotoxicity control for PAX8 inhibitor project, cell-based, plate reader, dry powder, SA11 (AID 743150); assay type: functional; details: OVCAR-4
[29] = P. falciparum Dd2 growth inhibitors, dose response, SYBR Green, dry powder samples, set 9 (AID 1159568); assay type: functional, cell-based
[30] = target: RNA-editing ligase 1, mitochondrial (Trypanosoma brucei brucei, UniProt P86926); assay: TbREL1 ligase inhibitors, dose response, biochemical, fluorescence, Trypanosoma brucei (AID 1117295); assay type: functional
Genome polyprotein = Genome polyprotein (dengue virus type 2, UniProt P29990); assay: Dengue-2 NS5 methyltransferase inhibitors, primary screen, biochemical, confirmation dose response (AID 588689); assay type: functional
[31] = Vero cell cytotoxicity, dose response, cytotoxicity control for Vif-APOBEC3G degradation inhibitor project, Vero cells (AID 1117358); assay type: functional; details: Human immunodeficiency virus 1, Vero
[32] = CellTiter-Glo luminescent dose response of DLD-1 viability loss (AID 1117352); assay type: functional
[33] = Concentration-dependent survival of SW480 colon cancer line, luminescence detection with CellTiter-Glo, half-maximal inhibitory concentration (AID 1117338); assay type: functional
[34] = cytotoxicity toward HCT116 cells – cell-based, CellTiter-Glo luminescence, IC50, dose response (AID 1117332); assay type: functional; details: HCT-116
[35] = cytotoxicity toward Colo320 cells – cell-based, CellTiter-Glo luminescence, IC50, dose response (AID 1117334); assay type: functional; details: COLO 320
[36] = RKO cell viability reduction, dose response, CellTiter-Glo luminescence (AID 1117322); assay type: functional
[37] = cytotoxicity toward HT-29 cells – cell-based, CellTiter-Glo luminescence, IC50, dose response (AID 1117330); assay type: functional
[38] = SNU-C1 cell viability reduction, dose response, CellTiter-Glo luminescence (AID 1117323); assay type: functional, cell-based
[39] = HCT116 cell viability decrease, GSK3B pretreatment – CellTiter-Glo, IC50, dose response (AID 1117339); assay type: functional; details: HCT-116

T2 sequence (P11940 whole entry): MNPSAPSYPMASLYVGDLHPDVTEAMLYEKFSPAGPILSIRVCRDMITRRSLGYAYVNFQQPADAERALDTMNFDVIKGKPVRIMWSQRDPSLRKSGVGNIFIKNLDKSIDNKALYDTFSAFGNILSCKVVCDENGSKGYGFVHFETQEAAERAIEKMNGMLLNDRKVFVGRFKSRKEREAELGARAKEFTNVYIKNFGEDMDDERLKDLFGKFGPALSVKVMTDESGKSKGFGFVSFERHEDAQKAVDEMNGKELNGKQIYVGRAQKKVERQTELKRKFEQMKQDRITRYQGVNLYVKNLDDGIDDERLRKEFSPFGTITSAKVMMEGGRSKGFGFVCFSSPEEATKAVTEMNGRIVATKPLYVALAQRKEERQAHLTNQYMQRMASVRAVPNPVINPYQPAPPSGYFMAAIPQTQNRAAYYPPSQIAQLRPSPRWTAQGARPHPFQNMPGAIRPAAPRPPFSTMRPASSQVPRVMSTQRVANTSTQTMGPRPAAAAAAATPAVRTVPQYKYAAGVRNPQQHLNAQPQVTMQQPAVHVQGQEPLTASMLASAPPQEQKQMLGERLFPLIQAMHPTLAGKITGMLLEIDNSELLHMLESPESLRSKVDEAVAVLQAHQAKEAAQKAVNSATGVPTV
Chain of RNA-editing ligase 1, mitochondrial (P86926 whole entry): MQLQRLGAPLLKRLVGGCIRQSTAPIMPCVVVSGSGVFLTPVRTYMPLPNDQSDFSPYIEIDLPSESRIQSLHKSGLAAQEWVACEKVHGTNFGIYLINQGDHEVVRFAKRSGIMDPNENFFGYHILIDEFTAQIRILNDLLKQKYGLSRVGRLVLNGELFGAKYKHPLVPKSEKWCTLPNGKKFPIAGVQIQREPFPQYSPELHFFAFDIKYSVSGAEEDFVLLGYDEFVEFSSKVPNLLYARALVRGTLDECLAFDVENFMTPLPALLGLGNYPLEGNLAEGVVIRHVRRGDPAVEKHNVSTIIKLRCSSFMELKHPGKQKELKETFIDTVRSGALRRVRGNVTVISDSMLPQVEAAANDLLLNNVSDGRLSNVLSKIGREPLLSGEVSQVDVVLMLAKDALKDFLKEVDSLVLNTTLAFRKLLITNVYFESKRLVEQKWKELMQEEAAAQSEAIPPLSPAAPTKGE
Chain of Caspase-9 (P55211 1-315 limits assumed): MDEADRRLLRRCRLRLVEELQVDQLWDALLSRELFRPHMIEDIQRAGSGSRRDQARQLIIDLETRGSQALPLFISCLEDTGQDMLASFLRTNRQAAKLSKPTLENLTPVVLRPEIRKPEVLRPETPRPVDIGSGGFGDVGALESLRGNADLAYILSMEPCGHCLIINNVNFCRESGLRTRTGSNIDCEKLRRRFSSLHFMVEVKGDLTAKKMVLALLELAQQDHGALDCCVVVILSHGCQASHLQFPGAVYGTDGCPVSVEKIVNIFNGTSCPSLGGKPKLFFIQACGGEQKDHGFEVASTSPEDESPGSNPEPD
Chain of Caspase-9 (P55211 331-416 limits assumed): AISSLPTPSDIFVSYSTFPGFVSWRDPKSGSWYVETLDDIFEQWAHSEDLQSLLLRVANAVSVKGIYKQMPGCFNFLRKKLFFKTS
Chain of Paired box protein Pax-8 (Q06710 whole entry): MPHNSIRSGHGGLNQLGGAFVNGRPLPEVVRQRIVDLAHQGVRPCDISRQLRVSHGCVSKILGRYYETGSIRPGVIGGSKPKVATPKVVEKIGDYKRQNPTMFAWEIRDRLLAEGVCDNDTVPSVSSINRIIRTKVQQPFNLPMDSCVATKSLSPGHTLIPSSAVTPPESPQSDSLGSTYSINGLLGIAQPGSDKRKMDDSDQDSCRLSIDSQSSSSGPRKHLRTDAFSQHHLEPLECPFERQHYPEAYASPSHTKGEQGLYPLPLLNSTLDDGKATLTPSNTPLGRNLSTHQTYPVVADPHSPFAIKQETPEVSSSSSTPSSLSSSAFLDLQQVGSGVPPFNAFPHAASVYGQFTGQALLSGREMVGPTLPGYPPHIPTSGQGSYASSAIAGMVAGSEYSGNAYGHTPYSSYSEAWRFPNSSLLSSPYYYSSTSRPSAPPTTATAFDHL
Chain of Genome polyprotein (P29990 2492-3391 limits assumed): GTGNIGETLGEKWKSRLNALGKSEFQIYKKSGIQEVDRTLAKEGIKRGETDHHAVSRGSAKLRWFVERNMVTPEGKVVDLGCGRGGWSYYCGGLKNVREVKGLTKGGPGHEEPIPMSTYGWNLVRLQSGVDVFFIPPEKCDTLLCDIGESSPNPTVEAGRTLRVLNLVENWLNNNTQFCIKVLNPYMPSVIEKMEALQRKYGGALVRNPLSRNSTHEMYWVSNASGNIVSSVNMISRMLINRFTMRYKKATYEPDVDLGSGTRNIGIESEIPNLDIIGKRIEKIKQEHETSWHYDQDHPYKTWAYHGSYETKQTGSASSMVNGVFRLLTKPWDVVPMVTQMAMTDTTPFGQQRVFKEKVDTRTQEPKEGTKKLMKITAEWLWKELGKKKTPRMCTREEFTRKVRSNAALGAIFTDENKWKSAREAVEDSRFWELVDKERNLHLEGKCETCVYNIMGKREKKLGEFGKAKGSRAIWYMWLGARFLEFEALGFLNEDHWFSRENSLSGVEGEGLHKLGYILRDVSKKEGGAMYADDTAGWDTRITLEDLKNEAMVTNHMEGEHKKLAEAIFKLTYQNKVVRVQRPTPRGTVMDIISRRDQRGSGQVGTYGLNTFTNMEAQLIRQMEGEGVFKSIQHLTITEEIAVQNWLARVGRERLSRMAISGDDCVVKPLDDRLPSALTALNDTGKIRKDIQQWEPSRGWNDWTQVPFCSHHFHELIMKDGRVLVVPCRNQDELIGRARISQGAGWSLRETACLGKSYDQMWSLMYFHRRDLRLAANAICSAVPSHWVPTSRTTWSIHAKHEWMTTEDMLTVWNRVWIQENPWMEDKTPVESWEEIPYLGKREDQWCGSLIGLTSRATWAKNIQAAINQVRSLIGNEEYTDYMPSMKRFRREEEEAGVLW
Chain of Caspase-7 (P55210 24-198 limits assumed): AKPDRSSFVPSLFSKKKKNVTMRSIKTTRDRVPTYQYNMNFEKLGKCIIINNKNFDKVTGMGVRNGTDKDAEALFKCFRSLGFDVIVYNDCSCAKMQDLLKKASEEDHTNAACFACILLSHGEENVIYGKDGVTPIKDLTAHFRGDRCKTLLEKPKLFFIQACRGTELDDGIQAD
Chain of Caspase-7 (P55210 207-303 limits assumed): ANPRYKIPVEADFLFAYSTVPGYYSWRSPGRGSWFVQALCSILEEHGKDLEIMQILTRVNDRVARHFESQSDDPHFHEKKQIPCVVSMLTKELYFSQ
Chain of ELAV-like protein 1 (Q15717 whole entry): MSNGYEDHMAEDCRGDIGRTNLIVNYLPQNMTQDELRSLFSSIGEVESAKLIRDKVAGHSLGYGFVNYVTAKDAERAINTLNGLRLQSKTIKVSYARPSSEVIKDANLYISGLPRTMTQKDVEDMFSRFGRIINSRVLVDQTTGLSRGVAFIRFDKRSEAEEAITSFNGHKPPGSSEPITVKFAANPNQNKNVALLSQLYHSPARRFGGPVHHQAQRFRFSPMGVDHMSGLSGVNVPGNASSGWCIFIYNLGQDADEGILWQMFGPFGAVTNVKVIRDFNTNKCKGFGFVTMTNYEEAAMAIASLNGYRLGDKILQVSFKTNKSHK

CSC1=NC(=O)/C(=N\Nc2ccc([As](=O)(O)O)cc2)C(N)=N1
inactive: IC50 (ELAV-like protein 1) 2.7 µM

CCc1ccc(OCc2ccc(C(=O)OC)o2)cc1
active: IC50 [1] 0.551 µM | EC50 [2] 16.4 µM | EC50 (H4) 2.81 µM

COc1cc(NC(C)CCCNC(C)C)c2ncccc2c1OC (configuration not stated)
inactive: IC50 [3] 49.3 µM | IC50 [4] > 66 µM | AC50 (Caspase-9) > 70 µM
active: AC50 (Caspase-6) 1.52 µM | AC50 (Caspase-7) 23.2 µM | IC50 [5] 31.7 µM

Cn1c(-c2ccc(Cl)cc2)ccc(C#N)c1=O
> 120 µM (not active): EC50 [6] | EC50 [7]
active: EC50 [8] 8.33 µM | IC50 [9] > 100 µM | AC50 [10] 2.62 µM | AC50 [11] 2.46 µM | AC50 [12] 68.9 µM

Cn1nccc1C(=O)N1CCc2ccccc21
inactive: EC50 (Transthyretin) > 167 µM

COc1ccc(-c2ccccc2[C@H]2[C@@H](C#N)N(C(=O)C3CCCC3)[C@H]2CO)cc1
active: AC50 [13] 0.346 µM | AC50 [14] 0.368 µM | AC50 [15] 63.3 µM | AC50 [16] 0.479 µM | AC50 [17] 1.11 µM | AC50 [18] 1.78 µM

O=C(Nc1cccc(F)c1)N1CCCCN2[C@H](CO)[C@@H](c3ccc(C#Cc4ccccc4)cc3)[C@H]2C1
active: AC50 [19] 17 µM | AC50 [20] 11.6 µM | AC50 (Paired box protein Pax-8) 15.4 µM | AC50 [21] 21.2 µM | AC50 [22] 16 µM | AC50 [23] 21 µM | AC50 [24] 20.8 µM | AC50 [25] 12.6 µM | AC50 [26] 24.4 µM | AC50 [27] 15.5 µM | AC50 [28] 31.1 µM

C/C=C/c1ccc([C@H]2[C@@H](CO)N(CC3CCCCC3)[C@@H]2CNC(C)C)cc1
active: AC50 [29] 0.316 µM | AC50 [13] 0.231 µM | AC50 [14] 0.396 µM | AC50 [15] 49.3 µM | AC50 [16] 0.494 µM | AC50 [18] 0.294 µM

O=C(CCN1C(=O)S/C(=C/c2ccccc2)C1=O)Nc1ccc(O)c(C(=O)O)c1
active: IC50 (Genome polyprotein) 91.6 µM
inactive: IC50 [30] > 96.6 µM

CSc1cccc(-n2cc(-c3ccc4c(c3)OCO4)nc2O)c1
active: CC50 [31] > 40 µM

CO[C@H]1O[C@@H]2O[C@@]3(C)CC[C@H]4[C@H](C)CC[C@@H]([C@@H]1C)[C@@]24OO3
inactive: IC50 [32] > 20 µM | IC50 [33] > 20 µM | IC50 [34] > 20 µM | IC50 [35] > 20 µM | IC50 [36] > 20 µM | IC50 [37] > 20 µM | IC50 [38] > 20 µM | IC50 [39] > 20 µM
